In US11279737B2, “Antimicrobial peptide variants and uses thereof” (ANTINBIO, INC., priority 2019, dated 2022):
≈ marks a conversion by molar mass, not a printed value. Where a SMILES comes first, the peptide text is derived from it. Bridges are numbered along the chain shown (N, C = ends).

Key:
[1] = test system: S. epidermidis ATCC 14990; conditions: for Minimal inhibitory concentration (MIC): ATCC 14990
S. aureus ATCC 6538 [2] = conditions: for Minimal inhibitory concentration (MIC): ATCC 6538; for antimicrobial activity compared to wild type hegrisin (in words): S. aureus ATCC 6538, lower MIC values
S. aureus ATCC 6538 [3] = experiment: inhibition zone assay; conditions: 10 μg peptide per hole, 37° C., 16-18 hours
[4] = test system: S. aureus MRSA ATCC 43300; conditions: for Minimal inhibitory concentration (MIC): ATCC 43300; for antimicrobial activity compared to wild type hegrisin (in words): S. aureus MRSA ATCC 43300

| SMILES | Minimal inhibitory concentration (MIC) [1] | Minimal inhibitory concentration (MIC) (S. aureus ATCC 6538 [2]) | antimicrobial activity compared to wild type hegrisin (in words) (S. aureus ATCC 6538 [2]) | Activity (antimicrobial activity relative to unmodified hegrisin, zones of growth inhibition) (S. aureus ATCC 6538 [3]) | Minimal inhibitory concentration (MIC) [4] | antimicrobial activity compared to wild type hegrisin (in words) [4] | antimicrobial activity compared to wild type hegrisin (in words) ([1]; S. epidermidis ATCC 14990) |
| --- | --- | --- | --- | --- | --- | --- | --- |
| CC[C@H](C)[C@@H]1NC(=O)CNC(=O)CNC(=O)[C@H](Cc2ccccc2)NC(=O)[C@H](CCCCN)NC(=O)[C@@H]2CSSC[C@H](NC(=O)[C@H](CO)NC(=O)[C@H](Cc3c[nH]c4ccccc34)NC(=O)CN)C(=O)N[C@@H](CC(N)=O)C(=O)N[C@@H]([C@@H](C)CC)C(=O)N[C@@H](Cc3c[nH]c4ccccc34)C(=O)NCC(=O)NCC(=O)N[C@@H](CC(N)=O)C(=O)N[C@@H](CC(=O)O)C(=O)N[C@@H](CCC(=O)O)C(=O)N3CCC[C@H]3C(=O)N[C@H]3CSSC[C@H](NC1=O)C(=O)N[C@@H](CCCCN)C(=O)N[C@H](C(=O)N[C@@H](Cc1ccc(O)cc1)C(=O)O)CSSC[C@H](NC(=O)[C@H](Cc1c[nH]cn1)NC(=O)[C@H](CCC(N)=O)NC(=O)[C@H](Cc1c[nH]cn1)NC3=O)C(=O)N[C@@H](CCCCN)C(=O)N[C@@H](CO)C(=O)N[C@@H]([C@@H](C)CC)C(=O)N[C@@H](CCCNC(=N)N)C(=O)NCC(=O)N[C@@H](Cc1ccc(O)cc1)C(=O)N[C@@H](CCCNC(=N)N)C(=O)NCC(=O)NCC(=O)N[C@@H](Cc1ccc(O)cc1)C(=O)N2 [HCN2016-02] (H-GWSCNIWGGNDEPCHQHCKSIRGYRGGYCKFGGICKCY-OH; disulfide 4-29, 14-35, 18-37 (inferred); N-terminus and C-terminus assumed) | 1.40 µg/mL (≈ 0.327 µM) | 1.40 µg/mL (≈ 0.327 µM) | improved antimicrobial activity | 2 | 2.80 µg/mL (≈ 0.654 µM) |  |  |
| CC[C@H](C)[C@@H]1NC(=O)[C@H](CO)NC(=O)[C@H](CCCCN)NC(=O)[C@@H]2CSSC[C@@H](C(=O)N[C@@H](Cc3ccc(O)cc3)C(=O)O)NC(=O)[C@H](CCCCN)NC(=O)[C@@H]3CSSC[C@H](NC(=O)[C@@H]4CCCN4C(=O)[C@H](CCCCN)NC(=O)[C@H](CC(=O)O)NC(=O)[C@H](CC(N)=O)NC(=O)CNC(=O)CNC(=O)[C@H](Cc4ccccc4)NC(=O)[C@H]([C@@H](C)CC)NC(=O)[C@H]([C@@H](C)O)NC(=O)[C@@H](NC(=O)CNC(=O)[C@H](Cc4ccccc4)NC(=O)CN)CSSC[C@H](NC(=O)[C@H](Cc4ccc(O)cc4)NC(=O)CNC(=O)CNC(=O)[C@H](CCCCN)NC(=O)[C@H](Cc4ccc(O)cc4)NC(=O)CNC(=O)[C@H](CCCCN)NC1=O)C(=O)N[C@@H](CCCCN)C(=O)N[C@@H](C(C)C)C(=O)NCC(=O)NCC(=O)N[C@@H](C(C)C)C(=O)N3)C(=O)N[C@@H](Cc1c[nH]cn1)C(=O)N[C@@H](CCCNC(=N)N)C(=O)N[C@@H](Cc1c[nH]cn1)C(=O)N2 [HCN2016-03] (H-GFGCTIFGGNDKPCHRHCKSIKGYKGGYCKVGGVCKCY-OH; disulfide 4-29, 14-35, 18-37 (inferred); N-terminus and C-terminus assumed) | 1.30 µg/mL (≈ 0.32 µM) | 1.33 µg/mL (≈ 0.327 µM) | improved antimicrobial activity | 2 | 0.81 µg/mL (≈ 0.199 µM) | improved antimicrobial activity |  |
| CC[C@H](C)[C@@H]1NC(=O)CNC(=O)CNC(=O)[C@H](CC(C)C)NC(=O)[C@H](CCCCN)NC(=O)[C@@H]2CSSC[C@H](NC(=O)[C@H](CO)NC(=O)[C@H](Cc3c[nH]c4ccccc34)NC(=O)CN)C(=O)NCC(=O)N[C@@H](Cc3ccccc3)C(=O)N[C@@H](Cc3ccccc3)C(=O)NCC(=O)NCC(=O)N[C@@H](CC(N)=O)C(=O)N[C@@H](CC(=O)O)C(=O)N[C@@H](CCC(=O)O)C(=O)N3CCC[C@H]3C(=O)N[C@H]3CSSC[C@H](NC1=O)C(=O)N[C@@H](CCCCN)C(=O)N[C@H](C(=O)N[C@@H](Cc1ccc(O)cc1)C(=O)O)CSSC[C@H](NC(=O)[C@H](Cc1c[nH]cn1)NC(=O)[C@H](CCC(N)=O)NC(=O)[C@H](Cc1c[nH]cn1)NC3=O)C(=O)N[C@@H](CCCCN)C(=O)N[C@@H](CO)C(=O)N[C@@H]([C@@H](C)CC)C(=O)N[C@@H](CCCNC(=N)N)C(=O)NCC(=O)N[C@@H](Cc1ccc(O)cc1)C(=O)N[C@@H](CCCNC(=N)N)C(=O)NCC(=O)NCC(=O)N[C@@H](Cc1ccc(O)cc1)C(=O)N2 [HCN2016-04] (H-GWSCGFFGGNDEPCHQHCKSIRGYRGGYCKLGGICKCY-OH; disulfide 4-29, 14-35, 18-37 (inferred); N-terminus and C-terminus assumed) | 0.33 µg/mL (≈ 0.0789 µM) | 0.40 µg/mL (≈ 0.0956 µM) | improved antimicrobial activity | 2 | 0.86 µg/mL (≈ 0.206 µM) | improved antimicrobial activity | improved antimicrobial activity |
| CC[C@H](C)[C@@H]1NC(=O)CNC(=O)CNC(=O)[C@H](Cc2ccccc2)NC(=O)[C@H](CCCCN)NC(=O)[C@@H]2CSSC[C@H](NC(=O)CNC(=O)[C@H](Cc3c[nH]c4ccccc34)NC(=O)CN)C(=O)NCC(=O)N[C@@H](Cc3ccccc3)C(=O)N[C@@H](Cc3ccccc3)C(=O)NCC(=O)NCC(=O)N[C@@H](CC(N)=O)C(=O)N[C@@H](CC(=O)O)C(=O)N[C@@H](CCC(=O)O)C(=O)N3CCC[C@H]3C(=O)N[C@H]3CSSC[C@H](NC1=O)C(=O)N[C@@H](CCCCN)C(=O)N[C@H](C(=O)N[C@@H](Cc1ccc(O)cc1)C(=O)O)CSSC[C@H](NC(=O)[C@H](Cc1c[nH]cn1)NC(=O)[C@H](CCC(N)=O)NC(=O)[C@H](Cc1c[nH]cn1)NC3=O)C(=O)N[C@@H](CCCCN)C(=O)N[C@@H](CO)C(=O)N[C@@H]([C@@H](C)CC)C(=O)N[C@@H](CCCNC(=N)N)C(=O)NCC(=O)N[C@@H](Cc1ccc(O)cc1)C(=O)N[C@@H](CCCNC(=N)N)C(=O)NCC(=O)NCC(=O)N[C@@H](Cc1ccc(O)cc1)C(=O)N2 [HCN2016-05] (H-GWGCGFFGGNDEPCHQHCKSIRGYRGGYCKFGGICKCY-OH; disulfide 4-29, 14-35, 18-37 (inferred); N-terminus and C-terminus assumed) | 2.80 µg/mL (≈ 0.669 µM) | 1.44 µg/mL (≈ 0.344 µM) | improved antimicrobial activity | 2 | 2.88 µg/mL (≈ 0.688 µM) |  |  |
